Laboratory results taken from the supplement of paper PMC10307832.

How the values were obtained:
Test in all cases: relative viability (nuclei count vs DMSO), 5 days (fraction); higher = more cells survive
[1] = compound: C(C(=O)C(=O)O)Br [Bromopyruvate] + Nc1nc2[nH]cc(CCc3ccc(C(=O)N[C@@H](CCC(=O)O)C(=O)O)cc3)c2c(=O)[nH]1 [Pemetrexed] (partner 0.2 µM)
Procedure, shortened: (§1)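 Each reported value is a median over duplicate plates. It expresses relative viability: treated-well nuclei count divided by vehicle-well nuclei count. Lung cancer cell lines in 1536-well plates were dosed by pin tool a day after seeding, alone with one drug or with a fixed anchor-drug dose plus five library-drug doses (not always all listed) in √10 steps, and nuclei were counted after 5 days.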

[2] = compound: C(C(=O)C(=O)O)Br [Bromopyruvate] + COc1cccc2cc(-c3nc([C@H]4CC[C@H](C(=O)O)CC4)n4ncnc(N)c34)[nH]c12 [OSI-027] (partner 0.5 µM)
Procedure, shortened: as §1

[3] = compound: C(C(=O)C(=O)O)Br [Bromopyruvate] + CS(=O)(=O)CCNCc1ccc(-c2ccc3ncnc(Nc4ccc(OCc5cccc(F)c5)c(Cl)c4)c3c2)o1 [Lapatinib] (partner 2 µM)
Procedure, shortened: as §1

[4] = compound: C(C(=O)C(=O)O)Br [Bromopyruvate] + O=C(CCCCCCC(=O)Nc1ccccc1)NO [Vorinostat] (partner 1 µM)
Procedure, shortened: as §1

**Q.** With UMC-11 as the cell line, how does the relative viability ([1]; first compound 1 µM) read?
**A.** 0.801

**Q.** And the relative viability ([1]; first compound 3.162 µM)?
**A.** 0.841

**Q.** What about the relative viability ([1]; first compound 10 µM) of the same cell line?
**A.** 0.777

**Q.** What about the relative viability ([1]; first compound 31.62 µM) of the same cell line?
**A.** 0.708

**Q.** What about the relative viability ([1]; first compound 100 µM) of the same cell line?
**A.** 0.736

**Q.** And the relative viability ([2]; first compound 1 µM)?
**A.** 0.518

**Q.** And the relative viability ([2]; first compound 3.162 µM)?
**A.** 0.452

**Q.** And the relative viability ([2]; first compound 10 µM)?
**A.** 0.491

**Q.** And the relative viability ([2]; first compound 31.62 µM)?
**A.** 0.533

**Q.** And the relative viability ([2]; first compound 100 µM)?
**A.** 0.501

**Q.** And the relative viability ([3]; first compound 1 µM)?
**A.** 1.15

**Q.** What about the relative viability ([3]; first compound 3.162 µM) of the same cell line?
**A.** 0.976

**Q.** And the relative viability ([3]; first compound 10 µM)?
**A.** 1.11

**Q.** What about the relative viability ([3]; first compound 31.62 µM) of the same cell line?
**A.** 0.966

**Q.** What about the relative viability ([3]; first compound 100 µM) of the same cell line?
**A.** 1.03

**Q.** And the relative viability ([4]; first compound 1 µM)?
**A.** 0.479

**Q.** And the relative viability ([4]; first compound 3.162 µM)?
**A.** 0.357

**Q.** And the relative viability ([4]; first compound 10 µM)?
**A.** 0.289

**Q.** And the relative viability ([4]; first compound 31.62 µM)?
**A.** 0.274

**Q.** What about the relative viability ([4]; first compound 100 µM) of the same cell line?
**A.** 0.2
